Literature values as cited in patent publication US20040266821A1, “Acylated piperidine derivatives as melanocortin-4 receptor agonists” (priority 2001, published 2004).

Experiments:
[1] = not given; remark: listed apart in the source
[2] = oral route

Cc1ccc(N(CC2=NCCN2)c2cccc(O)c2)cc1 [phentolamine]
duration of effect (after an oral dose): 2 h | onset of action (after an oral dose): 5 to 30 min | share of men/patients with adequate response (oral): 35-40%

Ac-Nle-c[Asp-His-DPhe-Arg-Trp-Lys]-NH2 [MT-II]
duration of action ([1]; in vivo): approximately 2.5 hours | time to onset of erection ([1]; in vivo): 10 to 20 min | response rate ([1]; injected intramuscularly or subcutaneously): 75% | absorption into the systemic circulation [2]: not absorbed into the systemic circulation
